Earlier results in patent US20200215149A1, “N-Phenylacetyl-L-prolylglycine ethyl ester compositions and methods for using the same” (priority 2019, published 2020).
Like-named read-outs stand apart in the source and are kept apart here. Where a SMILES comes first, the peptide text is derived from it. The star is where a group is joined. PhAc = O=C(Cc1ccccc1)*

Key:
[1] = Ostrovskaya, et al. (2008); Hayakawa, et al. (2007)
[2] = ratio versus piracetam; Neznamov and Teleshova (2009)

Row | SMILES | side effects (humans who consume effective doses of CBD, Bergamaschi, et al. (2011)) | tolerance or addiction [1] | side effects (healthy human subjects, compared with piracetam, Neznamov and Teleshova (2009)) | effective dose, times smaller in mass than the effective dose of piracetam [2]
1 | C=C(C)[C@@H]1CCC(C)=C[C@H]1c1c(O)cc(CCCCC)cc1O [CBD, cannabidiol] | generally does not cause significant side effects | neither noopept nor CBD has been shown to cause the user to become tolerant or addicted | – | –
2 | CCOC(=O)CNC(=O)[C@@H]1CCCN1C(=O)Cc1ccccc1 [noopept, N-Phenylacetyl-L-prolylglycine ethyl ester] (PhAc-Pro-Gly-OEt) | – | neither noopept nor CBD has been shown to cause the user to become tolerant or addicted | fewer side effects | over 50 times
